# Data: US20110217771A1, “Fluidic Culture Device” (priority 2008, published 2011)
# Target: T1, collagen I matrix (Bos taurus, UniProt P02453+P02465)
# T1 construct: purchased PureCol (product name as printed)
# Test: Gradient generation and characterization in the collagen I matrix of the culture chamber (fluorescence detection)
# Method: Invasive angiogenic sprouting in three dimensions was studied by embedding organs or clusters of cells in a collagen I matrix composed of Ham's F12 medium (Promocell), 6.26 mM NaOH, 20 mM HEPES, 0.117% NaHCO3, 1% Glutamax-I (Gibco) and 1.5 mg/ml collagen I (PureCol). The flow channels were sealed prior to casting of the gel by the insertion of PDMS plugs. These were cut out a little wider than the channels (˜7×5×0.6 mm) to prevent the gel from leaking into the flow channels. The gel volume (20 μl) deposited in the culture chamber was approximately twice the size of the chamber volume to account for shrinkage and to make sure that the when the culture system was assembled the gel would be slightly compressed in order to occupy the entire culture chamber. […] The collagen gel was left to polymerize in a regular cell incubator at 37° C. and 5% CO2 for 2 hours. Organs or cell clusters were deposited into the center of the culture chamber using a Pasteur pipette in the beginning of the polymerization process. The tissue can be carefully positioned with a needle or by tapping the side of the culture chamber. Both organs and cells can be grown in the fluidic culture device in its open configuration with the culture chamber facing upwards for several days by adding cell media to cover the top of the open culture chamber.
# Stock solutions of recombinant VEGFA165 (PeproTech), FGF2 (PeproTech) and VEGFC (R&D systems) were stored at −20° C. until further use. […]
# Flow in the culture system was generated by connecting two syringes (connected to a syringe pump) to the channel inlets. […] No flow was recorded through the culture chamber when the flow rates in the source and sink channels were kept identical.
# The gradient profile was initially characterized by detection of F-VEGFA. […] FIG. 10 illustrates time-lapse series of the central part of the culture chamber (1.7×1.3 mm) as a gradient of F-VEGFA is established; gradient formation in the culture chamber was detected by measuring the fluorescent signal. […] The profiles are recorded at the center of the chamber, indicated by black bar in FIG. 12. […]
# [1] = collagen I matrix, flow 0.5 μl/min
# T1 sequence (P02453 162-1217 limits assumed): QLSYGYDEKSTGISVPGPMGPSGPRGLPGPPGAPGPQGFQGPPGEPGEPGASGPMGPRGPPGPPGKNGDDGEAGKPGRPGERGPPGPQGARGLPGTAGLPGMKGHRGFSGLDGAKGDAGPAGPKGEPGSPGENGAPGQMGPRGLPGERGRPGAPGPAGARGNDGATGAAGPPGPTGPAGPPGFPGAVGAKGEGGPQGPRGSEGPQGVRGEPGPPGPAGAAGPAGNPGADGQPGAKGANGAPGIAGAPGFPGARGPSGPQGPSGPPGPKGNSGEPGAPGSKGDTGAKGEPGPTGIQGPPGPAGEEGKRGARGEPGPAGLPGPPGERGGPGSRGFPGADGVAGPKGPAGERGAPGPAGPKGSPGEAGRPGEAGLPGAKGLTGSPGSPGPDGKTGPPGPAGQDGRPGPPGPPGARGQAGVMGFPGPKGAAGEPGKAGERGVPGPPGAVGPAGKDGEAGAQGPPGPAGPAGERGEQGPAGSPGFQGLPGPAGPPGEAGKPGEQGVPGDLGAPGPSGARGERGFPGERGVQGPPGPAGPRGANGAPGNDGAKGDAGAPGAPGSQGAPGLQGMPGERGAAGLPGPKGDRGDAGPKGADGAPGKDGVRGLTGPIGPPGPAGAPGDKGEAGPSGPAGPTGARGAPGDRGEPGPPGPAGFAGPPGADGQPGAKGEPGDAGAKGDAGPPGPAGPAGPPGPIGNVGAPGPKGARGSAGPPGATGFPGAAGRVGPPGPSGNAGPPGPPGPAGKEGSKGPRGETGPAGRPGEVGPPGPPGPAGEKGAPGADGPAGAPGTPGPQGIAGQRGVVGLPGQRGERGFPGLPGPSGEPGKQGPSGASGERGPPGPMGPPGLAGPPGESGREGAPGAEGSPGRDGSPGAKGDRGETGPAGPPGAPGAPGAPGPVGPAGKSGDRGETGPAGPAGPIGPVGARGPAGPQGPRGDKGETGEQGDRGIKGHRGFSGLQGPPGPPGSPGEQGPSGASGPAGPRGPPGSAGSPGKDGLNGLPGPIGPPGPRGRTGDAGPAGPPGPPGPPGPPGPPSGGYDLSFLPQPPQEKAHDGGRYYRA
# T1 sequence (P02465 80-1117 limits assumed): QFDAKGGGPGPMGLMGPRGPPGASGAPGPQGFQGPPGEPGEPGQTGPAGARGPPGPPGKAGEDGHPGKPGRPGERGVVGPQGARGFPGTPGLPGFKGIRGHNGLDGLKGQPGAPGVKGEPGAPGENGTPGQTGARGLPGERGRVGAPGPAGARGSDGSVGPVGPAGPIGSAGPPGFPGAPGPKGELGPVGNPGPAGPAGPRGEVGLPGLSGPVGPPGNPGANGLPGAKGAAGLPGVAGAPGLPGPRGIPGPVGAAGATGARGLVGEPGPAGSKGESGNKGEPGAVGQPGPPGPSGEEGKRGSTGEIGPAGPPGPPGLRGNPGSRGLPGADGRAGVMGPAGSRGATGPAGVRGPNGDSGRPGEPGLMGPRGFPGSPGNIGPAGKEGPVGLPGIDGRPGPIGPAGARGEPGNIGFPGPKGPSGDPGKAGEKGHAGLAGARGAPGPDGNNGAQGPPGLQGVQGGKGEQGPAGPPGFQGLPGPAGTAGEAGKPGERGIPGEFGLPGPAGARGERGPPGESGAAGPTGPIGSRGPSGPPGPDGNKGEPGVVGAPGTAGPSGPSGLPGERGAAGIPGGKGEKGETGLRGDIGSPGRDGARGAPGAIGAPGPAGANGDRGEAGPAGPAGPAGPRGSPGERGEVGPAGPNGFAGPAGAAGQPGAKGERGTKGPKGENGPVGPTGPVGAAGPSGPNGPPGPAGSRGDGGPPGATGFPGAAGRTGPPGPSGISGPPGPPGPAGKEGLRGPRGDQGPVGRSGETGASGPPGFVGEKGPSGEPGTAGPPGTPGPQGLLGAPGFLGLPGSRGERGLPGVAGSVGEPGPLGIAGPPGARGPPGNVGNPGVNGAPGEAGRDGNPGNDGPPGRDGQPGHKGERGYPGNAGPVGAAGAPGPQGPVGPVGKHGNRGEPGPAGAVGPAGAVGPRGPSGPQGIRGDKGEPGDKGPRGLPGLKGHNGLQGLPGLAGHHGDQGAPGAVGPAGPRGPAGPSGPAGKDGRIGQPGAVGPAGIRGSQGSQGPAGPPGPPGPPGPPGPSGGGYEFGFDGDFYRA
substance,measurement,setting,value
FITC-dextran,affinity for collagen I (accumulation at the edge of the gel),1.5 mg/ml collagen I matrix,little or no affinity for collagen I
same,time after which the gradient was stable,[1],approximately 6 hours
same,time to formation of a linear gradient after onset of flow,[1],≤ 2 h
